Results reported in patent US12685757B2, “Method to increase systemic blood pressure in shock” (GEORGETOWN UNIVERSITY, priority 2019, dated 2026).
Entries after “also recorded” stand apart in the source; their conditions may differ.

Assays:
[1] = system: arteriolar smooth muscle (ASM) cells; test: Ca2+ imaging in isolated arterioles and arteriolar smooth muscle cells; format: cell-based, mice
Procedure: Arterial smooth muscle cell isolation. Radial artery branch (artery #18) and cerebellar branch (cerebral artery #3) were washed in Mg^2+-based physiological saline solution (Mg-PSS) containing 5 mM KCl, 140 mM NaCl, 2 mM MgCl2, 10 mM Hepes, and 10 mM glucose, (pH 7.3). Arteries were initially digested in papain (0.6 mg/ml) (Worthington) and dithioerythritol (1 mg/ml) in Mg-PSS at 37° C. for 15 min, followed by a 15-min incubation at 37° C. in type II collagenase (1.0 mg/ml) (Worthington) in Mg-PSS. The digested arteries were washed three times in ice-cold Mg-PSS solution and incubated on ice for 30 min. After this incubation period, vessels were triturated to liberate smooth muscle cells and stored in ice-cold Mg-PSS before use. Smooth muscle cells were studied within 6 hours of isolation.
Ca^2+ imaging. Arterioles and ASM cells were loaded with 1 μM Fluo-4-AM (Invitrogen, Thermo Fisher Scientific) in a standard buffer containing in mM: 140 NaCl, 4 KCl, 1 MgCl2, 1.2 CaCl2), 10 HEPES, and 5 glucose (pH 7.3). For studies of hypoosmotic stretch, NaCl was reduced to 70 mM, and mannitol (70-150 mM) was added to adjust osmolarity to between 220 and 310 mOsm. Final osmolarity was confirmed with an osmometer (Model 3320, Advanced Instruments). Temperature was maintained either at room temperature (23° C.) or at 32-35° C. using a heated microscope stage (Tokai Hit). Bath temperature was verified by a thermistor probe (Warner Instruments). Cells were imaged with a 20× objective using a Nikon TE2000 microscope with an excitation filter of 480±15 nm and an emission filter of 535±25 nm. The images were captured by a Retiga 3000 digital camera (QImaging) and analysis was performed offline using ImageJ. Individual smooth muscle cells were counted for sensitivity to capsaicin and KCl. Sensitivity was defined as a greater than 20% change from baseline (typically responses were greater than 100%). Solutions were applied via a pencil (250-μm diameter) that was attached to a valve-controlled gravity-fed perfusion system.

[2] = system: vascular smooth muscle cell; test: Voltage-clamp currents in vascular smooth muscle cell; format: cell-based
radial branch arteries = test: Intravital imaging of radial branch arteries; format: in vivo, mice; conditions: local administration
Procedure: Intravital imaging: Intravital imaging was performed in radial artery branches (~20 and 60 μm in diameter, artery #18 in FIG. 2F). Animals were anesthetized with urethane (1.2 g/kg/IP). The forelimb was shaved and an incision was made. The skin and underlying muscle tissue were reflected to expose the brachial-radial artery junction. Both in WT and TRPV1-null mice, the arteries were visualized with a Zeiss stereomicroscope and illuminated with a low power blue light (using a standard GFP filter cube) exploiting the differential auto-fluorescence between tissue and blood. In TRPV1-Cre:ChR2/tdTomato mice, arteries were visualized with low power visible irradiation and stimulated with blue light. The exposed arteries were locally perfused (using a 250 μm pencil connected to a valve-controlled gravity-fed perfusion system) with preheated PSS solutions containing in mM: 140 NaCl, 4 KCl, 1 MgCl2, 1.2 CaCl2), 10 HEPES, and 5 glucose (pH 7.3). The surface tissue temperature (34-35° C.) was measured via a thermistor (Warner Instruments) that was positioned next to the artery. Arteries were challenged with a PSS containing 0 Ca^2+/1 mM EGTA to measure the passive diameter. The arteriole diameter was measured using ImageJ as described above for the ex vivo vessels.

[3] = system: isolated pressurized (60 mmHg) arteries; test: Ex vivo contractility of isolated pressurized arteries; parameters: species or system mice; conditions: for response to prolonged application: arterioles
Procedure: Ex vivo artery physiology: Skeletal muscle arteries (radial artery branch, artery #18, subscapular branch artery #14) and cerebellar branch, cerebral artery #3) were isolated and cannulated with glass micropipettes secured with monofilament threads. The pipette and bathing solution contained modified PSS (125 mM NaCl, 3 mM KCl, 26 mM NaHCO3, 1.25 mM NaH2PO4, 1 mM MgCl2, 4 mM D-glucose, and 2 mM CaCl2)) aerated with a gas mixture consisting of 95% 02, 5% CO2, to maintain pH (pH 7.4). Arterioles were pressure clamped (60 mmHg) using a custom-built apparatus in a heated imaging chamber (Tokai Hit), viewed with a 10× objective using a Nikon TE2000 microscope and recorded by a Retiga 3000 digital camera (QImaging). The arteriole diameter was measured at several locations along each arteriole using the NIH-ImageJ software's edge-detection plug-in (Diameter). The software automatically detects the distance between edges (by resampling a total of five times from adjacent pixels) yielding a continuous read-out SD of a vessel's diameter.

anesthetized mice = test: Systemic blood pressure recording in anesthetized mice; format: in vivo
Procedure: (§1) Systemic blood pressure recording: The experiments were performed in anesthetized mice (urethane 1.2-1.5 g/kg/IP) and rats (thiopental 50 mg/kg/IP; supplement if needed was 5 mg/kg/IV). Subsequent to anesthesia, mice or rats underwent cannulation of the carotid artery and jugular vein as follows:
Surgical preparation mouse: After the depth of anesthesia was confirmed by lack of pedal and corneal reflexes, mice were intubated via the trachea after a tracheotomy to maintain an open airway and to institute artificial respiration when necessary. Next, the left carotid artery and the right jugular vein were cannulated with a Millar catheter (1F SPR-1000) and a polyethylene tubing (PE-10), respectively, for monitoring blood pressure and for systemic infusion of drugs. To monitor heart rate, a three-point needle electrode-assembly representing Lead II of the electrocardiogram (ECG) was attached subcutaneously to the right and left forelimbs along with a reference electrode to the left hindlimb. Both the Millar catheter and the ECG assembly were coupled to a PowerLab data acquisition system (ADInstruments, Inc.). Prior to vessel cannulation, the adjacent left cervical vagus was carefully isolated from the left carotid artery. Body temperature was monitored by a digital rectal thermometer and maintained at 37±1° C. with an infrared heat lamp.

anesthetized rat = test: Systemic blood pressure recording in anesthetized rats; format: in vivo
Procedure: as §1
Surgical preparation rat: Similar to the mouse, following intubation of the trachea, the left carotid artery, and jugular vein were cannulated with a polyethylene tubing (PE50) to monitor blood pressure and infuse drugs, respectively. Blood pressure was continuously recorded via a pressure transducer connected to the Haemosys hemodynamic system (Experimetria Ltd., Budapest, Hungary), as was the ECG. The ECG was recorded from the extremities of the animal by means of hypodermic metal needles inserted subcutaneously in accordance with the Einthoven method (I, II, III leads). As in the mouse, heart rate was determined from lead II of the ECG recordings and body core temperature was maintained at 37±0.5° C. with a temperature controlled infrared heating lamp. Drug administration: Intravenous infusion of drugs was initiated only when a stable baseline of blood pressure and heart rate was present. This was also the case when drugs were re-administered.

[4] = cited from earlier work
[5] = bolus IV, up to 4 μg/kg; cited from earlier work
DRG = test: nLacZ staining of DRG after systemic TRPV1 agonist (neurotoxicity); format: in vivo; conditions: 50 μg/kg; TRPV1-nLacZ reporter mice; preliminary data
Excerpt: A potential adverse effect of TRPV1 agonists is toxicity to sensory nerves. Indeed, in vivo administration of the ultrapotent agonist, resiniferatoxin (RTX), or even high doses of capsaicin can lead to destruction of TRPV1+ neurons (Szallasi S and Blumberg P M, “Vanilloid receptor loss in rat sensory ganglia associated with long term desensitization to resiniferatoxin” Neurosci Lett 140 (1)(1992)51-54. In one embodiment, TRPV1 agonists that poorly penetrate the CNS, such as DkTx or BrP-LPA, are employed. In vivo toxicity is tested by the administration of TRPV1 agonists in TRPV1^PLAP-nLacZ mice based on the highest cumulative doses utilized in EXAMPLE 5. One week later, DRG are isolated and analyzed for nLacZ staining. […] This analysis therefore determines TRPV1 agonist neurotoxicity and forms an assay for toxicity limiting strategies. In one embodiment, BrP-LPA is employed as a more hydrophilic molecule than capsaicin with less neurotoxicity. In another embodiment, DkTx, with limited CNS penetration, is employed to avoid neurotoxicity.
X-gal staining. TRPV1^PLAP-nlacZ mice were anesthetized with isoflurane and perfused through the heart using PBS (0.1M, pH 7.3) followed by ice-cold 2-4% buffered paraformaldehyde. […]

Row | Compound | Ca2+ responses in arterioles from TRPV1-null mice ([1]; TRPV1-null mice) | Ca2+ signaling in ASM cells ([1]; subset of ASM cells from wild-type mice) | currents in voltage-clamped cell [2] | constriction of radial branch arteries in vivo (radial branch arteries) [%] | effect on nearby veins or arteries in TRPV1-null mice (radial branch arteries) | constriction of arteries from TRPV1-null mice ([3]; 1 μM, TRPV1-null mice) | Emax at 1 µM ([3]; Mus musculus, 1 μM, wild-type and TRPV1-Cre:tdTomato mice, read-out: constriction of brain arterioles, % of the maximal response to 50 mM KCl) [%] | response to prolonged application [3] | effect on coronary arterioles ([3]; effect inversely proportional to vessel diameter) | effect on systemic blood pressure in mice (anesthetized mice; IV infusion, wild type but not TRPV1-null mice) | blood pressure during infusion (anesthetized mice; infusion) | duration of persistent increase in BP (anesthetized mice; preliminary data) [min] | tachyphylaxis of pressor effect (anesthetized mice; repeated injections) | heart rate at peak response (anesthetized rat; at peak pressor/depressor response) | heart rate effect of bolus injections (anesthetized rat; bolus injection, prevented by atropine or slower infusion) | rise in systolic and diastolic blood pressure (anesthetized rat; intravenous, highest dose tested (4-32 μg/kg)) [mm Hg] | in vivo half-life [4] [min] | sensations reported by subjects [5] | nLacZ staining in DRG (DRG)
1 | COc1cc(CNC(=O)CCCC/C=C/C(C)C)ccc1O [Capsaicin, 8-methyl-N-vanillyl-6-nonenamide] | no responses | increased Ca^2+ signaling | Non-desensitizing currents | > 90 | without affecting | did not constrict | ~75 | slowly declining | constricted coronary arterioles | pressor; also recorded: markedly increased systemic blood pressure | sustained increase in BP | 15 to 30 | does not exhibit tachyphylaxis | without any significant changes in heart rate | transient bradycardic effect | ~60 | 3 to 5 | mild burning sensation and a feeling of warmth | –
2 | resiniferatoxin | – | – | – | – | – | – | – | non-desensitizing response | – | – | – | – | – | – | – | – | – | – | nearly completely abolishes nLacZ staining
